# According to ChEMBL document CHEMBL6074674, “Development of Novel Silicon-Based Hydrophobic Tags (SiHyT) for Targeted Proteins Degradation” (J Med Chem, 2024):
# Calls of active or inactive are those of the source. No cut-off for these calls is given here.
# Test system: PC-9
# Assay: Antiproliferative activity against human PC-9 cells assessed as decrease in cell survival measured after 72 hrs by CCK-8 assay
# Format: functional, cell-based
# Settings: PC-9, 72 h
row,Structure (SMILES),IC50 [µM]
1,COc1cc2ncnc(Nc3ccc(F)c(Cl)c3)c2cc1OCCCN1CCOCC1 [GEFITINIB],0.013

# Test system: PC-9
# Assay: Induction of cell cycle arrest in human PC-9 cells assessed as increase in cell accumulation at G1 phase at 0.01 to 0.1 uM incubated for 24 hrs by propidium iodide staining based flow cytometry
# Format: functional
# Settings: dose 0.01-0.1 µM
row,Structure (SMILES),Activity
1,COc1cc2ncnc(Nc3ccc(F)c(Cl)c3)c2cc1OCCCN1CCOCC1 [GEFITINIB],Dose-dependent-effect

# Test system: HCC827
# Assay: Induction of cell cycle arrest in human HCC827 cells assessed as increase in cell accumulation at G1 phase at 0.01 to 0.1 uM incubated for 24 hrs by propidium iodide staining based flow cytometry
# Format: functional
# Settings: dose 0.01-0.1 µM
row,Structure (SMILES),Activity
1,COc1cc2ncnc(Nc3ccc(F)c(Cl)c3)c2cc1OCCCN1CCOCC1 [GEFITINIB],Dose-dependent-effect

# Test system: not listed separately
# Assay: Half life of the compound in mouse liver microsomes at 1 uM in presence of NADPH by LC-MS/MS analysis
# Format: ADME, Microsome
# Settings: not given
row,half-life at 1 µM [min],Structure (SMILES)
1,1.05,COc1cc2ncnc(Nc3ccc(F)c(Cl)c3)c2cc1OCCn1cc(CCCNC(=O)CC23CC4CC(CC(C4)C2)C3)nn1
2,7.4,COc1cc2ncnc(Nc3ccc(F)c(Cl)c3)c2cc1OCCn1cc(CCCNC(=O)CO[C@@H]2C[C@H](C)CC[C@H]2C(C)C)nn1
3,8.94,COc1cc2ncnc(Nc3ccc(F)c(Cl)c3)c2cc1OCCn1cc(CCCC(=O)NCC2CC3C=CC2C3)nn1 (stereo not given)

row,Structure (SMILES),half-life at 1 µM [min]
1,O=C(O)Cc1ccccc1Nc1c(Cl)cccc1Cl [DICLOFENAC],50.2

# Test system: not listed separately
# Assay: Intrinsic clearance of the compound in mouse liver microsomes at 1 uM in presence of NADPH by LC-MS/MS analysis
# Format: ADME, Microsome
# Settings: read-out: CLH
row,CLint scaled at 1 µM [L/h/kg],Structure (SMILES)
1,314,COc1cc2ncnc(Nc3ccc(F)c(Cl)c3)c2cc1OCCn1cc(CCCNC(=O)CC23CC4CC(CC(C4)C2)C3)nn1
2,44.5,COc1cc2ncnc(Nc3ccc(F)c(Cl)c3)c2cc1OCCn1cc(CCCNC(=O)CO[C@@H]2C[C@H](C)CC[C@H]2C(C)C)nn1
3,36.8,COc1cc2ncnc(Nc3ccc(F)c(Cl)c3)c2cc1OCCn1cc(CCCC(=O)NCC2CC3C=CC2C3)nn1 (stereo not given)

row,Structure (SMILES),CLint scaled at 1 µM [L/h/kg]
1,O=C(O)Cc1ccccc1Nc1c(Cl)cccc1Cl [DICLOFENAC],6.56

# Test system: not listed separately
# Assay: Half life of the compound in human liver microsomes at 1 uM in presence of NADPH by LC-MS/MS analysis
# Format: ADME, Microsome
# Settings: not given
row,half-life at 1 µM [min],Structure (SMILES)
1,1.81,COc1cc2ncnc(Nc3ccc(F)c(Cl)c3)c2cc1OCCn1cc(CCCNC(=O)CC23CC4CC(CC(C4)C2)C3)nn1
2,4.22,COc1cc2ncnc(Nc3ccc(F)c(Cl)c3)c2cc1OCCn1cc(CCCNC(=O)CO[C@@H]2C[C@H](C)CC[C@H]2C(C)C)nn1
3,9.48,COc1cc2ncnc(Nc3ccc(F)c(Cl)c3)c2cc1OCCn1cc(CCCC(=O)NCC2CC3C=CC2C3)nn1 (stereo not given)

row,Structure (SMILES),half-life at 1 µM [min]
1,O=C(O)Cc1ccccc1Nc1c(Cl)cccc1Cl [DICLOFENAC],6.96

# Test system: not listed separately
# Assay: Intrinsic clearance of the compound in human liver microsomes at 1 uM in presence of NADPH by LC-MS/MS analysis
# Format: ADME, Microsome
# Settings: read-out: CLH
row,CLint scaled at 1 µM [L/h/kg],Structure (SMILES)
1,41.4,COc1cc2ncnc(Nc3ccc(F)c(Cl)c3)c2cc1OCCn1cc(CCCNC(=O)CC23CC4CC(CC(C4)C2)C3)nn1
2,17.7,COc1cc2ncnc(Nc3ccc(F)c(Cl)c3)c2cc1OCCn1cc(CCCNC(=O)CO[C@@H]2C[C@H](C)CC[C@H]2C(C)C)nn1
3,7.92,COc1cc2ncnc(Nc3ccc(F)c(Cl)c3)c2cc1OCCn1cc(CCCC(=O)NCC2CC3C=CC2C3)nn1 (stereo not given)

row,Structure (SMILES),CLint scaled at 1 µM [L/h/kg]
1,O=C(O)Cc1ccccc1Nc1c(Cl)cccc1Cl [DICLOFENAC],10.7

# Test system: not listed separately
# Assay: (§1) SiHyT-mediated degrader activity at RNF149/PDL1 in human Kasumi 1 cells assessed as induction of PDL1 degradation incubated for 24 hrs by western blot analysis
# Format: cell-based
# Settings: Kasumi 1, 24 h
row,DC50 [µM],Structure (SMILES)
1,0.51,COc1cc(OCc2cccc(-c3ccccc3)c2C)cc(OC)c1CNCc1cn(CCO[Si](c2ccccc2)(c2ccccc2)C(C)(C)C)nn1

# Test system: Kasumi 1
# Assay: as §1
# Format: cell-based
# Settings: not given
row,Structure (SMILES),Activity
1,COc1cc(OCc2cccc(-c3ccccc3)c2C)cc(OC)c1CNCc1cn(CCO[Si](c2ccccc2)(c2ccccc2)C(C)(C)C)nn1,Active

# Test system: not listed separately
# Assay: (§2) SiHyT-mediated degrader activity at RNF149/BTK in human MOLM-13 cells assessed as induction of BTK degradation incubated for 24 hrs by western blot analysis
# Format: cell-based
# Settings: MOLM-13, 24 h
row,DC50 [µM],Structure (SMILES)
1,2.78,CC(C)(C)[Si](OCCn1cc(CCC(=O)N2CCC[C@@H](n3nc(-c4ccc(Oc5ccccc5)cc4)c4c(N)ncnc43)C2)nn1)(c1ccccc1)c1ccccc1

# Test system: MOLM-13
# Assay: as §2
# Format: cell-based
# Settings: not given
row,Structure (SMILES),Activity
1,CC(C)(C)[Si](OCCn1cc(CCC(=O)N2CCC[C@@H](n3nc(-c4ccc(Oc5ccccc5)cc4)c4c(N)ncnc43)C2)nn1)(c1ccccc1)c1ccccc1,Active

# Test system: Kasumi 1
# Assay: SiHyT-mediated degrader activity at RNF149/PDL1 in human Kasumi 1 cells assessed as induction of PDL1 degradation at 1 uM incubated for 3 to 24 hrs by western blot analysis
# Format: cell-based
# Settings: time 3-24 hrs
row,Structure (SMILES),Activity
1,COc1cc(OCc2cccc(-c3ccccc3)c2C)cc(OC)c1CNCc1cn(CCO[Si](c2ccccc2)(c2ccccc2)C(C)(C)C)nn1,Time-dependent-effect

# Test system: MOLM-13
# Assay: SiHyT-mediated degrader activity at RNF149/BTK in human MOLM-13 cells assessed as induction of BTK degradation at 2.5 uM incubated for 3 to 24 hrs by western blot analysis
# Format: cell-based
# Settings: time 3-24 hrs
row,Structure (SMILES),Activity
1,CC(C)(C)[Si](OCCn1cc(CCC(=O)N2CCC[C@@H](n3nc(-c4ccc(Oc5ccccc5)cc4)c4c(N)ncnc43)C2)nn1)(c1ccccc1)c1ccccc1,Time-dependent-effect

# Test system: Kasumi 1
# Assay: SiHyT-mediated degrader activity at RNF149/PDL1 in human Kasumi 1 cells assessed as induction of PDL1 degradation at 1 uM pretreated with proteasome inhibitor, MG-132 for 4 hrs followed by incubation with compound for 24 hrs by western blot analysis
# Format: cell-based
# Settings: not given
row,Structure (SMILES),Activity
1,COc1cc(OCc2cccc(-c3ccccc3)c2C)cc(OC)c1CNCc1cn(CCO[Si](c2ccccc2)(c2ccccc2)C(C)(C)C)nn1,inactive

# Test system: Kasumi 1
# Assay: SiHyT-mediated degrader activity at RNF149/PDL1 in human Kasumi 1 cells assessed as induction of PDL1 degradation at 1 uM pretreated with E1 ligase inhibitor, PYR-41 for 4 hrs followed by incubation with compound for 24 hrs by western blot analysis
# Format: cell-based
# Settings: not given
row,Structure (SMILES),Activity
1,COc1cc(OCc2cccc(-c3ccccc3)c2C)cc(OC)c1CNCc1cn(CCO[Si](c2ccccc2)(c2ccccc2)C(C)(C)C)nn1,inactive

# Test system: MOLM-13
# Assay: SiHyT-mediated degrader activity at RNF149/BTK in human MOLM-13 cells assessed as induction of BTK degradation at 2.5 uM pretreated with proteasome inhibitor, MG-132 for 4 hrs followed by incubation with compound for 24 hrs by western blot analysis
# Format: cell-based
# Settings: not given
row,Structure (SMILES),Activity
1,CC(C)(C)[Si](OCCn1cc(CCC(=O)N2CCC[C@@H](n3nc(-c4ccc(Oc5ccccc5)cc4)c4c(N)ncnc43)C2)nn1)(c1ccccc1)c1ccccc1,inactive

# Test system: MOLM-13
# Assay: SiHyT-mediated degrader activity at RNF149/BTK in human MOLM-13 cells assessed as induction of BTK degradation at 2.5 uM pretreated with E1 ligase inhibitor, PYR-41 for 4 hrs followed by incubation with compound for 24 hrs by western blot analysis
# Format: cell-based
# Settings: not given
row,Structure (SMILES),Activity
1,CC(C)(C)[Si](OCCn1cc(CCC(=O)N2CCC[C@@H](n3nc(-c4ccc(Oc5ccccc5)cc4)c4c(N)ncnc43)C2)nn1)(c1ccccc1)c1ccccc1,inactive

# Test system: Kasumi 1
# Assay: SiHyT-mediated degrader activity at RNF149/PDL1 in human Kasumi 1 cells assessed as reduction in half life of PDL1 at 1 uM incubated for 6 to 24 hrs in presence of protein synthesis inhibitor, CHX by western blot analysis
# Format: cell-based
# Settings: time 6-24 hrs
row,Structure (SMILES),Activity
1,COc1cc(OCc2cccc(-c3ccccc3)c2C)cc(OC)c1CNCc1cn(CCO[Si](c2ccccc2)(c2ccccc2)C(C)(C)C)nn1,Active

# Test system: MOLM-13
# Assay: SiHyT-mediated degrader activity at RNF149/BTK in human MOLM-13 cells assessed as reduction in half life of BTK at 2.5 uM incubated for 6 to 24 hrs in presence of protein synthesis inhibitor, CHX by western blot analysis
# Format: cell-based
# Settings: time 6-24 hrs
row,Structure (SMILES),Activity
1,CC(C)(C)[Si](OCCn1cc(CCC(=O)N2CCC[C@@H](n3nc(-c4ccc(Oc5ccccc5)cc4)c4c(N)ncnc43)C2)nn1)(c1ccccc1)c1ccccc1,Active

# Test system: Kasumi 1
# Assay: SiHyT-mediated degrader activity at RNF149/PDL1 in human Kasumi 1 cells assessed as increase in PDL1 ubiquitination pretreated with MG132 followed by incubation with compound for 9 hrs by immunoprecipitation based western blot analysis
# Format: cell-based
# Settings: not given
row,Structure (SMILES),Activity
1,COc1cc(OCc2cccc(-c3ccccc3)c2C)cc(OC)c1CNCc1cn(CCO[Si](c2ccccc2)(c2ccccc2)C(C)(C)C)nn1,Active

# Test system: MOLM-13
# Assay: SiHyT-mediated degrader activity at RNF149/BTK in human MOLM-13 cells assessed as increase in BTK ubiquitination pretreated with MG132 followed by incubation with compound for 9 hrs by immunoprecipitation based western blot analysis
# Format: cell-based
# Settings: not given
row,Structure (SMILES),Activity
1,CC(C)(C)[Si](OCCn1cc(CCC(=O)N2CCC[C@@H](n3nc(-c4ccc(Oc5ccccc5)cc4)c4c(N)ncnc43)C2)nn1)(c1ccccc1)c1ccccc1,Active

# Test system: Kasumi 1
# Assay: SiHyT-mediated degrader activity at RNF149/PDL1 in human Kasumi 1 cells assessed as increase in PDL1 degradation by measuring decrease in PDL1 expression incubated for 12 hrs by proteomics analysis
# Format: cell-based
# Settings: not given
row,Structure (SMILES),Activity
1,COc1cc(OCc2cccc(-c3ccccc3)c2C)cc(OC)c1CNCc1cn(CCO[Si](c2ccccc2)(c2ccccc2)C(C)(C)C)nn1,Active

# Test system: MOLM-13
# Assay: SiHyT-mediated degrader activity at RNF149/BTK in human MOLM-13 cells assessed as increase in BTK degradation by measuring decrease in BTK expression incubated for 12 hrs by proteomics analysis
# Format: cell-based
# Settings: not given
row,Structure (SMILES),Activity
1,CC(C)(C)[Si](OCCn1cc(CCC(=O)N2CCC[C@@H](n3nc(-c4ccc(Oc5ccccc5)cc4)c4c(N)ncnc43)C2)nn1)(c1ccccc1)c1ccccc1,Active
